What was measured:
[1] = Inhibitor permeability across MDCK cell monolayers (LC/MS); assay type: in vitro ADME, canine; conditions: dog; MDCK monolayers on porous filters, 20 μM; read-out: transepithelial permeability coefficient
Experimental: UT-A1 expressing MDCK cells were grown on 12-mm diameter collagen-coated Transwell inserts (0.4 μm pore size; Costar, Costar, N.Y.) to form tight monolayers (resistance>500 Ωcm^2), as described (see, e.g., Levin et al. (2007) FASEB J. 21, 551-563). Urea flux in the basolateral-to-apical direction was measured in response to a 15 mM urea gradient in which PBS containing forskolin (10 μM), with or without UT-A1 inhibitor and 0.7 mM phloretin, was added to both the apical-facing (0.2 mL) and basal-facing (2 mL) surfaces. After 30 min the basal-facing solution was replaced by PBS containing test compound+15 mM urea. Apical fluid samples (5 μL) were collected at specified times for enzymatic assay of urea (QUANTICHROME Urea Assay Kit; BioAssay Systems, Hayward, Calif.). To measure inhibitor permeability across MDCK cell layers, compounds (20 μM) were added on the basal-facing surface and fluid samples (20 μL) from the apical-facing surface were collected at different time points and analyzed by LC/MS.
To further evaluate the potential site of inhibitor action, the kinetics of UT-A1 inhibition was measured by assay of UT-A1 inhibition at different times after compound addition. […] To assess inhibitor membrane permeability transport of UTAinh-E02 and UTAinh-F11 across MDCK monolayers grown on porous filters by LC/MS was measured. Transport of UTAinh-F11 was much faster than that of UTAinh-E02 (FIG. 3C, right lower panel), with computed transepithelial permeability coefficients of […] and 1.1×10^−5 cm/s, respectively. From surface-to-volume considerations, the equilibration times were computed of UTAinh-E02 and UTAinh-F11 to be 250 and 14 s, respectively, in MDCK cells, which are consistent with intracellular sites of action of both inhibitors.

rats = assay: Diuretic studies in rats; assay type: in vivo, rat; conditions: for urine osmolality / urine volume: control, hydrated rats
Experimental: Compound effects on urine output, osmolality and urea concentration were investigated in two conditions. Rats were placed in metabolic cages with water and food available ad libitum and spontaneously voided urine was collected for 3 h. Rats were then injected intravenously with 20 mg/kg UTAinh-E02 or UTAinh-F11 in formulations listed above (or vehicle alone), and returned to the metabolic cages without access to water, but free access to food. Spontaneously voided urine was collected every 3 h for a 6-h period. In some experiments, rats were administered dDAVP (4 μg/kg, IP) just before compound (or vehicle) injection and 3 h later. […] Urine osmolality was measured in water-diluted urine samples by freezing-point osmometry (Micro-osmometer; Precision Systems, Natick, Mass.). Urea concentration was determined by a colorimetric enzymatic assay as described above.
Diuretic efficacy was tested in rats under two different conditions. Inhibitor effects on maximum urinary concentrating ability was studied in rats administered the V2-selective agonist dDAVP at 4 μg/kg every 3 hours. Inhibitors were administered intravenously at 20 mg/kg as done in the pharmacokinetics experiments above. […] Each inhibitor produced a marked increase in volume and reduction in osmolality in urine collected over 0-3 h.
In a separate set of studies UTAinh-E02 was tested in control, hydrated rats.

PIM-1 kinase = PIM-1 kinase (Homo sapiens, UniProt P11309); conditions: Ren et al. (2011); cited from earlier work
Chain of PIM-1 kinase (P11309 whole entry): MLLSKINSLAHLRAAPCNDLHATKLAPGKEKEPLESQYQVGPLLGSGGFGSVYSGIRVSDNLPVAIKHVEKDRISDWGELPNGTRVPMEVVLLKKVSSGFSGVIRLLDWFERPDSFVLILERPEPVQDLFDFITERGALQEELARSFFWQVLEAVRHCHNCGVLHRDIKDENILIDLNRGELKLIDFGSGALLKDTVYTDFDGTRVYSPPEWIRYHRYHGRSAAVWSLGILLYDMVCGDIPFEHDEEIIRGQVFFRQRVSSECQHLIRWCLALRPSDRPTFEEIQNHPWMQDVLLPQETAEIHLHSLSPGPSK

Row | Papp B→A at 20 μM [1] [×10⁻⁶ cm/s] | SMILES | urine osmolality (rats; 0-3 h) | urine volume (rats; 0-3 h) | urine osmolality (rats; 3-6 h collection) | urine volume (rats; 3-6 h collection) | ratio of urea vs. non-urea solutes in urine (rats; dDAVP rats, after inhibitor treatment) | PIM-1 kinase inhibitor potency (PIM-1 kinase)
1 | 11 | COc1ccc(C)cc1S(=O)(=O)Nc1ccc(Cl)c(N2CCCS2(=O)=O)c1 [UTA1inh-F11, N-[4-Chloro-3-(1,1-dioxido-1,2-thiazolidin-2-yl)phenyl]-2-methoxy-5-methylbenzene-sulfonamide] | – | – | – | – | – | –
2 | – | CC(=O)Nc1ccc(-c2csc(-c3c[nH]c4ccccc34)n2)cc1 [UTA1inh-E02, N-(4-(2-(1H-indol-3-yl)thiazol-4-yl)phenyl)acetamide] | reduced | significantly increased | returned to near baseline | returned to near baseline | increased | micromolar potency

Source: US11123340B2, “Small-molecule UT-A-selective urea transport inhibitors” (The Regents of the University of California, priority 2014, dated 2021)
